Assay results: patent publication US20030237103A1, “Methods and compositions for pharmacological and toxicological evaluation of test agents” (priority 2002, published 2003)

Tested on: Panel, parental and outbred (CD-IGS) rat strains
Assay: Clinical chemistry endpoints of gentamicin-treated vs. vehicle rats
Settings: for T-test value CREAT / T-test value GGT / T-test value GLOB / T-test value GLU / T-test value K / T-test value NA / T-test value PHOS / T-test value TBIL / T-test value TP / T-test value TRIG / T-test value ALB / T-test value ALP / T-test value ALT / T-test value ANION GAP / T-test value AST / T-test value BICARB / T-test value BUN / T-test value CA / T-test value CHOL: 240 mg/Kg gentamicin vs. vehicle
From the text: Percent increase is defined as[(mean drug—mean vehicle control)/mean vehicle control×100] for each strain tested. The number of animals tested in each group is noted below the strain designation in parenthesis as #drug treated animals per #vehicle treated animals.
We sought to maximize the range of genetic susceptibility to the adverse drug effects across the strains.

[1] = Panel (all 6 hybrid strains together)
[2] = Parental Group (all 4 parents combined)

Substance: gentamicin
- T-test value CREAT (LEWxF344 rats): 0.014
- T-test value GGT (LEWxF344 rats): 0.351
- T-test value GLOB (LEWxF344 rats): 0.080
- T-test value GLU (LEWxF344 rats): 0.455
- T-test value K (LEWxF344 rats): 0.216
- T-test value NA (LEWxF344 rats): 0.227
- T-test value PHOS (LEWxF344 rats): 0.652
- T-test value TBIL (LEWxF344 rats): 0.560
- T-test value TP (LEWxF344 rats): 1.000
- T-test value TRIG (LEWxF344 rats): 0.129
- increase in BUN (LEW×F344, BN, F344, LEW and LEW×Bn strains, gentamicin treated): 2-3 fold
- T-test value ALB [1]: 0.000
- T-test value ALP [1]: 0.300
- T-test value ALT [1]: 0.440
- T-test value ANION GAP [1]: 0.802
- T-test value AST [1]: 0.026
- T-test value BICARB [1]: 0.204
- T-test value BUN [1]: 0.000
- T-test value CA [1]: 0.004
- T-test value CHOL [1]: 0.404
- T-test value CREAT [1]: 0.000
- T-test value GGT [1]: 0.078
- T-test value GLOB [1]: 0.024
- T-test value GLU [1]: 0.497
- T-test value K [1]: 0.032
- T-test value NA [1]: 0.064
- T-test value PHOS [1]: 0.091
- T-test value TBIL [1]: 0.244
- T-test value TP [1]: 0.036
- T-test value TRIG [1]: 0.000
- T-test value ALB [2]: 0.000
- T-test value ALP [2]: 0.037
- T-test value ALT [2]: 0.047
- T-test value ANION GAP [2]: 0.046
- T-test value AST [2]: 0.040
- T-test value BICARB [2]: 0.068
- T-test value BUN [2]: 0.000
- T-test value CA [2]: 0.018
- T-test value CHOL [2]: 0.327
- T-test value CREAT [2]: 0.000
- T-test value GGT [2]: 0.083
- T-test value GLOB [2]: 0.638
- T-test value GLU [2]: 0.244
- T-test value K [2]: 0.486
- T-test value NA [2]: 0.000
- T-test value PHOS [2]: 0.016
- T-test value TBIL [2]: 0.141
- T-test value TP [2]: 0.002
- T-test value TRIG [2]: 0.000
- T-test value ALB (WKY rats): 0.034
- T-test value ALP (WKY rats): 0.003
- T-test value ALT (WKY rats): 0.346
- T-test value ANION GAP (WKY rats): 0.137
- T-test value AST (WKY rats): 0.244
- T-test value BICARB (WKY rats): 0.229
- T-test value BUN (WKY rats): 0.264
- T-test value CA (WKY rats): 0.969
- T-test value CHOL (WKY rats): 0.232
- T-test value CREAT (WKY rats): 0.156
- T-test value GLOB (WKY rats): 0.358
- T-test value GLU (WKY rats): 0.742
- T-test value K (WKY rats): 0.881
- T-test value NA (WKY rats): 0.134
- T-test value PHOS (WKY rats): 0.014
- T-test value TBIL (WKY rats): 0.052
- T-test value TP (WKY rats): 0.254
- T-test value TRIG (WKY rats): 0.010
- T-test value ALB (WKYxBN rats): 0.080
- T-test value ALP (WKYxBN rats): 0.008
- T-test value ALT (WKYxBN rats): 0.172
- T-test value ANION GAP (WKYxBN rats): 0.887
- T-test value AST (WKYxBN rats): 0.575
- T-test value BICARB (WKYxBN rats): 0.923
- T-test value BUN (WKYxBN rats): 0.016
- T-test value CA (WKYxBN rats): 0.175
- T-test value CHOL (WKYxBN rats): 0.610
- T-test value CREAT (WKYxBN rats): 0.026
- T-test value GGT (WKYxBN rats): 0.189
- T-test value GLOB (WKYxBN rats): 0.361
- T-test value GLU (WKYxBN rats): 1.000
- T-test value K (WKYxBN rats): 0.114
- T-test value NA (WKYxBN rats): 0.401
- T-test value PHOS (WKYxBN rats): 0.118
- T-test value TBIL (WKYxBN rats): 0.020
- T-test value TP (WKYxBN rats): 0.070
- T-test value TRIG (WKYxBN rats): 0.032
- T-test value ALB (WKYxF344 rats): 0.002
- T-test value ALP (WKYxF344 rats): 0.000
- T-test value ALT (WKYxF344 rats): 0.530
- T-test value ANION GAP (WKYxF344 rats): 0.434
- T-test value AST (WKYxF344 rats): 0.596
- T-test value BICARB (WKYxF344 rats): 0.318
- T-test value BUN (WKYxF344 rats): 0.005
- T-test value CA (WKYxF344 rats): 0.135
- T-test value CHOL (WKYxF344 rats): 0.867
- T-test value CREAT (WKYxF344 rats): 0.043
- T-test value GLOB (WKYxF344 rats): 0.104
- T-test value GLU (WKYxF344 rats): 0.375
- T-test value K (WKYxF344 rats): 0.270
- T-test value NA (WKYxF344 rats): 0.128
- T-test value PHOS (WKYxF344 rats): 0.010
- T-test value TBIL (WKYxF344 rats): 0.002
- T-test value TP (WKYxF344 rats): 0.125
- T-test value TRIG (WKYxF344 rats): 0.007
- T-test value ALB (WKYxLEW rats): 0.001
- T-test value ALP (WKYxLEW rats): 0.001
- T-test value ALT (WKYxLEW rats): 0.584
- T-test value ANION GAP (WKYxLEW rats): 0.429
- T-test value AST (WKYxLEW rats): 0.677
- T-test value BICARB (WKYxLEW rats): 0.085
- T-test value BUN (WKYxLEW rats): 0.000
- T-test value CA (WKYxLEW rats): 0.092
- T-test value CHOL (WKYxLEW rats): 0.608
- T-test value CREAT (WKYxLEW rats): 0.000
- T-test value GLOB (WKYxLEW rats): 0.365
- T-test value GLU (WKYxLEW rats): 0.001
- T-test value K (WKYxLEW rats): 0.689
- T-test value NA (WKYxLEW rats): 0.514
- T-test value PHOS (WKYxLEW rats): 0.123
- T-test value TBIL (WKYxLEW rats): 0.685
- T-test value TP (WKYxLEW rats): 0.000
- T-test value TRIG (WKYxLEW rats): 0.015
